Key:
Acute toxicity = details: mouse, in vivo, ip, Swiss mice, observed for a week
Experimental: The acute toxicity was determined on groups of Swiss mice weighing 18 to 22 g and the test products were administered intraperitoneally in increasing doses and the animals were kept under observation for a week.

[1] = test system: reserpine ptosis of the eyelid; test: Antidepressant activity: antagonism of reserpine eyelid ptosis; assay type: in vivo, rats; details: 1 h before 1 mg/kg reserpine
Experimental: The antidepressant activity was determined by antagonism exercised by the compounds against the depressant activity of reserpine and this effect was determined by ptosis of the eyelid test codified by Rubin [J. Pharm. Exp. Ther., Vol. 120 (1957), p. 125]. The eyelid ptosis test is used to make a quantitative evaluation of the condition of the animal, but the antagonism exercised equally against the neuro depressive symptoms of reserpine; immobility, adynamia, hypothermia, myosis, etc. The reading was effected every hour for 6 hours after intraperitoneal injection of 1 mg/kg of reserpine to groups of rats who had one hour previously received intraperitoneally a variable dose of the test compounds. The ptosis provoked by the reserpine injection was diminished by the previous injection of the test compounds, all the more so at the elevated doses. The results were expressed as a percentage of protection compared to controls which received only reserpine and are reported in Table IV.

DOPA = test: Potentialization of DOPA; assay type: in vivo, mice (male); details: 1 h before 50 mg/kg DOPA
Experimental: In this test, DOPA [racemic β-(3,4-dihydroxyphenyl)-alanine] was administered to mice pretreated with 1-isonicotinoyl-2-isopropyl-hydrazine18 hours before the test which product caused the following symptoms: hypertonicity, agitation, crying, aggressiveness, salivation and exophthalmia. The administration of an antidepressant one hour before the DOPA injection potentializes the intensity of the effects.
Male mice weighing between 18 to 22 g received intraperitoneally 50 mg/kg of 1-isonicotinoyl-2-isopropyl-hydrazine and 18 hours later the test product intraperitoneally in aqueous solution in increasing doses and 1 hour later received an intraperitoneal injection of 50 mg/kg of DOPA. The different effects were evaluated 15 and 30 minutes after the DOPA injection and each symptom was evaluated for each animal on a scale from 0 to 3 and the evaluations for each dose was totaled. The totals are reported in Table III as a percent of the total of control animals.

amytal sleeping time = test: Potentialization of sleeping time (amytal); assay type: in vivo, mice (female); details: 1 h before 80 mg/kg amytal i.v.
Experimental: The potentialization of sleeping time was determined with a test using amytal [5-ethyl-5-isoamyl-barbituric acid] in which groups of female mice weighing between 18 and 22 g were kept at 25° C for the duration of the test. The test products were administered intraperitoneally at different doses one hour before intraveinous injection of 80 mg/kg of amytal and the sleeping time was noted which is the time while the reflux of straightening in the mice was negative.

Row | Structure (SMILES) | LD50 at 168 h (Acute toxicity) [mg/kg] | % Protection ([1]; 2 mg/Kg i.p.) [%] | % Protection ([1]; 10 mg/Kg i.p.) [%] | % Protection ([1]; 20 mg/Kg i.p.) [%] | % Protection ([1]; 50 mg/Kg i.p.) [%] | total symptom score as percent of the total of control animals (DOPA; 10 mg/Kg i.p.) [%] | total symptom score as percent of the total of control animals (DOPA; 20 mg/Kg i.p.) [%] | total symptom score as percent of the total of control animals (DOPA; 50 mg/Kg i.p.) [%] | average sleeping time (amytal sleeping time; 5 mg/Kg i.p.) [min] | average sleeping time (amytal sleeping time; 10 mg/Kg i.p.) [min] | average sleeping time (amytal sleeping time; 20 mg/Kg i.p.) [min] | average sleeping time (amytal sleeping time; 50 mg/Kg i.p.) [min]
1 | CNCCN1C2Cc3ccccc3C1c1ccccc12 (stereo not drawn) [Example 28, 12-(2'-methylaminoethyl)-10,11-dihydro-5,10-imino-[5H]-dibenzo (a,d) cycloheptene dl] | ~150 | 10 | 43 | 60 | 84 |  |  |  |  |  |  | 
2 | CN(C)CCN1C2Cc3ccccc3C1c1ccccc12 (stereo not drawn) [Example 29, 12-(2'-dimethylaminoethyl)-10,11-dihydro-5,10-imino-[5H]-dibenzo (a,d) cycloheptene dl] | ~180 | 9 | 40 | 39 | 66 | 81 | 101 | 177 |  |  |  | 
3 | NCCN1C2Cc3ccccc3C1c1ccccc12 (stereo not drawn) [Example 30, 12-(2'-aminoethyl)-10,11-dihydro-5,10-imino-[5H]-dibenzo (a,d) cycloheptene dl] | ~150 | 18 | 38 | 69 | 74 | 113 | 150 |  | 46.3 | 38.1 | 64.1 | 89.0

Source: US4009273A, “Substituted 10,11-dihydro-5,10-imino-[5H] dibenzo (a,d)-cycloheptene” (priority 1972, dated 1977)
